Experiments:
Assay type in all cases: in vivo
[1] = test system: bedstraw (Galium aparine); assay: Test B pre-/postemergence; design: key: 0 is no effect; 10 is complete control; details: Postemergence
Excerpt: (§1) Seeds of bedstraw (Galium aparine), blackgrass (Alopecurus myosuroides), broadleaf signalgrass (Brachiaria decumbens), cocklebur (Xanthium strumarium), corn (Zea mays), crabgrass (Digitaria sanguinalis), giant foxtail (Setaria faberii), lambsquarters (Chenopodium album), momingglory (Ipomoea hederacea), pigweed (Amaranthus retroflexus), rape (Brassica napus), soybean (Glycine max), sugar beet (Beta vulgaris), velvetleaf (Abutilon theophrasti), wheat (Triticum aestivum), wild oat (Avena fatua) and purple nutsedge (Cyperus rotundus) tubers were planted and treated preemergence with test chemicals formulated in a non-phytotoxic solvent mixture which included a surfactant.
(§2) At the same time, these crop and weed species were also treated with postemergence applications of test chemicals formulated in the same manner. Plants ranged in height from 2 to 18 cm (1- to 4-leaf stage) for postemergence treatments. Plant species in the flood test consisted of rice (Oryza sativa), smallflower flatsedge (Cyperus difformis), duck salad (Heteranthera limosa) and bamyardgrass (Echinochloa crus-galli) grown to the 2-leaf stage for testing. Treated plants and controls were maintained in a greenhouse for twelve to sixteen days, after which all species were compared to controls and visually evaluated. Plant response ratings, summarized in Table B, are based on a scale of 0 to 10 where 0 is no effect and 10 is complete control. A dash (−) response means no test result.

corn (Zea mays) = assay: Test B pre-/postemergence; design: key: 0 is no effect; 10 is complete control; details: for Corn plant response rating: Preemergence
Excerpt: as §1, §2

[2] = test system: wheat (Triticum aestivum); assay: Test B pre-/postemergence; design: key: 0 is no effect; 10 is complete control
Excerpt: as §1, §2

[3] = test system: blackgrass (Alopecurus myosuroides); assay: Test B pre-/postemergence; design: key: 0 is no effect; 10 is complete control; details: for Blackgrass plant response rating: Preemergence
Excerpt: as §1, §2

[4] = test system: velvetleaf (Abutilon theophrasti); assay: Test B pre-/postemergence; design: key: 0 is no effect; 10 is complete control
Excerpt: as §1, §2

wild oat (Avena fatua) = assay: Test B pre-/postemergence; design: key: 0 is no effect; 10 is complete control
Excerpt: as §1, §2

[5] = test system: giant foxtail (Setaria faberii); assay: Test B pre-/postemergence; design: key: 0 is no effect; 10 is complete control
Excerpt: as §1, §2

[6] = test system: cocklebur (Xanthium strumarium); assay: Test B pre-/postemergence; design: key: 0 is no effect; 10 is complete control; details: for Plant response rating, Cocklebur: Postemergence; for Cocklebur plant response rating: Preemergence
Excerpt: as §1, §2

[7] = test system: broadleaf signalgrass (Brachiaria decumbens); assay: Test B pre-/postemergence; design: key: 0 is no effect; 10 is complete control; details: for B. signalgrass plant response rating: Preemergence
Excerpt: as §1, §2

soybean (Glycine max) = assay: Test B pre-/postemergence; design: key: 0 is no effect; 10 is complete control
Excerpt: as §1, §2

[8] = test system: momingglory (Ipomoea hederacea); assay: Test B pre-/postemergence; design: key: 0 is no effect; 10 is complete control
Excerpt: as §1, §2

[9] = test system: sugar beet (Beta vulgaris); assay: Test B pre-/postemergence; design: key: 0 is no effect; 10 is complete control
Excerpt: as §1, §2

rape (Brassica napus) = assay: Test B pre-/postemergence; design: key: 0 is no effect; 10 is complete control
Excerpt: as §1, §2

[10] = test system: crabgrass (Digitaria sanguinalis); assay: Test B pre-/postemergence; design: key: 0 is no effect; 10 is complete control; details: for Crabgrass plant response rating: Preemergence
Excerpt: as §1, §2

[11] = test system: purple nutsedge (Cyperus rotundus); assay: Test B pre-/postemergence; design: key: 0 is no effect; 10 is complete control
Excerpt: as §1, §2

[12] = test system: pigweed (Amaranthus retroflexus); assay: Test B pre-/postemergence; design: key: 0 is no effect; 10 is complete control
Excerpt: as §1, §2

[13] = test system: smallflower flatsedge (Cyperus difformis); assay: Test B flood test
Method in brief: (§3)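 Each value is a visual injury score relative to controls, with 10 meaning complete control and 0 no effect. Evaluation took place twelve to sixteen days after the 2-leaf-stage plants were treated and kept in the greenhouse.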

[14] = test system: duck salad (Heteranthera limosa); assay: Test B flood test
Method in brief: as §3

[15] = test system: bamyardgrass (Echinochloa crus-galli); assay: Test B flood test
Method in brief: as §3

rice (Oryza sativa) = assay: Test B flood test
Method in brief: as §3

[16] = Rate 250 g/ha, Postemergence (so in the source)
[17] = Rate 62 g/ha, Postemergence (flood test)
[18] = Rate 125 g/ha, Postemergence section (flood test species)
[19] = Rate 250 g/ha, Postemergence (flood test species)
[20] = Rate 125 g/ha, Postemergence, flood test

For `Cc1cnc(-c2ccc(F)cc2F)nc1Cc1cccc(C(F)(F)F)c1` [Compound 31], the “Plant response rating, Bedstraw” value ([1]; Rate 62 g/ha) was 4, the “Plant response rating, Bedstraw” value ([1]; Rate 125 g/ha) was 6 and the “Plant response rating, Bedstraw” value ([1]; Rate 250 g/ha) was 6. The “Plant response rating, Corn” value (corn (Zea mays); Rate 62 g/ha, Postemergence) was 2, the “Corn plant response rating” value (corn (Zea mays); Rate 62 g/ha) was 0 and the “Plant response rating, Corn” value (corn (Zea mays); Rate 125 g/ha, Postemergence) was 2. For the same molecule, the “Corn plant response rating” value (corn (Zea mays); Rate 125 g/ha) was 0, the “Plant response rating, Corn” value (corn (Zea mays); Rate 250 g/ha, Postemergence) was 2 and the “Plant response rating, Corn” value (corn (Zea mays); [16]) was 1. The “Wheat plant response rating” value ([2]; Rate 62 g/ha, Postemergence) was 1, the “Wheat plant response rating” value ([2]; Rate 62 g/ha, Preemergence) was 0 and the “Wheat plant response rating” value ([2]; Rate 125 g/ha, Postemergence) was 3. For the same molecule, the “Plant response rating, Wheat” value ([2]; Rate 125 g/ha, Preemergence) was 0, the “Plant response rating, Wheat” value ([2]; Rate 250 g/ha, Postemergence) was 4 and the “Plant response rating, Wheat” value [2, 16] was 0. For the same molecule, the “Plant response rating, Blackgrass” value ([3]; Rate 62 g/ha, Postemergence) was 2, the “Blackgrass plant response rating” value ([3]; Rate 62 g/ha) was 1 and the “Plant response rating, Blackgrass” value ([3]; Rate 125 g/ha, Postemergence) was 2. For the same molecule, the “Blackgrass plant response rating” value ([3]; Rate 125 g/ha) was 2, the “Plant response rating, Blackgrass” value ([3]; Rate 250 g/ha, Postemergence) was 4 and the “Plant response rating, Blackgrass” value [3, 16] was 3. For the same molecule, the “Plant response rating, Velvetleaf” value ([4]; Rate 62 g/ha, Postemergence) was 2, the “Velvetleaf plant response rating” value ([4]; Rate 62 g/ha, Preemergence) was 0 and the “Velvetleaf plant response rating” value ([4]; Rate 125 g/ha, Postemergence) was 2. The “Plant response rating, Velvetleaf” value ([4]; Rate 125 g/ha, Preemergence) was 0, the “Plant response rating, Velvetleaf” value ([4]; Rate 250 g/ha, Postemergence) was 4 and the “Plant response rating, Velvetleaf” value [4, 16] was 0. For the same molecule, the “Wild oats plant response rating” value (wild oat (Avena fatua); Rate 62 g/ha, Postemergence) was 2, the “Wild oats plant response rating” value (wild oat (Avena fatua); Rate 62 g/ha, Preemergence) was 0 and the “Wild oats plant response rating” value (wild oat (Avena fatua); Rate 125 g/ha, Postemergence) was 3. The “Plant response rating, Wild oats” value (wild oat (Avena fatua); Rate 125 g/ha, Preemergence) was 1, the “Plant response rating, Wild oats” value (wild oat (Avena fatua); Rate 250 g/ha, Postemergence) was 4 and the “Plant response rating, Wild oats” value (wild oat (Avena fatua); [16]) was 2. The “Plant response rating, Giant foxtail” value ([5]; Rate 62 g/ha, Postemergence) was 2, the “Giant foxtail plant response rating” value ([5]; Rate 62 g/ha, Preemergence) was 2 and the “Giant foxtail plant response rating” value ([5]; Rate 125 g/ha, Postemergence) was 3. For the same molecule, the “Giant foxtail plant response rating” value ([5]; Rate 125 g/ha, Preemergence) was 5, the “Plant response rating, Giant foxtail” value ([5]; Rate 250 g/ha, Postemergence) was 3 and the “Plant response rating, Giant foxtail” value [5, 16] was 10. The “Plant response rating, Cocklebur” value ([6]; Rate 62 g/ha) was 6, the “Cocklebur plant response rating” value ([6]; Rate 62 g/ha) was 0 and the “Plant response rating, Cocklebur” value ([6]; Rate 125 g/ha) was 6. For the same molecule, the “Cocklebur plant response rating” value ([6]; Rate 125 g/ha) was 0, the “Plant response rating, Cocklebur” value ([6]; Rate 250 g/ha) was 7 and the “Plant response rating, B. signalgrass” value ([7]; Rate 62 g/ha, Postemergence) was 3. The “B. signalgrass plant response rating” value ([7]; Rate 62 g/ha) was 3, the “Plant response rating, B. signalgrass” value ([7]; Rate 125 g/ha, Postemergence) was 3 and the “B. signalgrass plant response rating” value ([7]; Rate 125 g/ha) was 9. For the same molecule, the “Plant response rating, B. signalgrass” value ([7]; Rate 250 g/ha, Postemergence) was 5, the “Plant response rating, B. signalgrass” value ([7]; Rate 250 g/ha, Postemergence as printed in head r139 (second section for compounds 26-50)) was 9 and the “Plant response rating, Soybean” value (soybean (Glycine max); Rate 62 g/ha, Postemergence) was 4. The “Soybean plant response rating” value (soybean (Glycine max); Rate 62 g/ha, Preemergence) was 0, the “Soybean plant response rating” value (soybean (Glycine max); Rate 125 g/ha, Postemergence) was 4 and the “Plant response rating, Soybean” value (soybean (Glycine max); Rate 125 g/ha, Preemergence) was 0. For the same molecule, the “Plant response rating, Soybean” value (soybean (Glycine max); Rate 250 g/ha, Postemergence) was 7, the “Plant response rating, Soybean” value (soybean (Glycine max); [16]) was 0 and the “Plant response rating, Morningglory” value ([8]; Rate 62 g/ha, Postemergence) was 3. For the same molecule, the “Morningglory plant response rating” value ([8]; Rate 62 g/ha, Preemergence) was 0, the “Morningglory plant response rating” value ([8]; Rate 125 g/ha, Postemergence) was 3 and the “Morningglory plant response rating” value ([8]; Rate 125 g/ha, Preemergence) was 2. For the same molecule, the “Plant response rating, Morningglory” value ([8]; Rate 250 g/ha, Postemergence) was 4, the “Plant response rating, Morningglory” value [8, 16] was 2 and the “Plant response rating, Sugarbeets” value ([9]; Rate 62 g/ha, Postemergence) was 10. The “Sugarbeets plant response rating” value ([9]; Rate 62 g/ha, Preemergence) was 0, the “Sugarbeets plant response rating” value ([9]; Rate 125 g/ha, Postemergence) was 10 and the “Plant response rating, Sugarbeets” value ([9]; Rate 125 g/ha, Preemergence) was 0. For the same molecule, the “Plant response rating, Sugarbeets” value ([9]; Rate 250 g/ha, Postemergence) was 10, the “Plant response rating, Sugarbeets” value [9, 16] was 3 and the “Plant response rating, Rape” value (rape (Brassica napus); Rate 62 g/ha, Postemergence) was 8. The “Rape plant response rating” value (rape (Brassica napus); Rate 62 g/ha, Preemergence) was 0, the “Rape plant response rating” value (rape (Brassica napus); Rate 125 g/ha, Postemergence) was 8 and the “Rape plant response rating” value (rape (Brassica napus); Rate 125 g/ha, Preemergence) was 0. The “Plant response rating, Rape” value (rape (Brassica napus); Rate 250 g/ha, Postemergence) was 9, the “Plant response rating, Rape” value (rape (Brassica napus); [16]) was 1 and the “Plant response rating, Crabgrass” value ([10]; Rate 62 g/ha, Postemergence) was 4. The “Crabgrass plant response rating” value ([10]; Rate 62 g/ha) was 1, the “Plant response rating, Crabgrass” value ([10]; Rate 125 g/ha, Postemergence) was 8 and the “Crabgrass plant response rating” value ([10]; Rate 125 g/ha) was 4. The “Plant response rating, Crabgrass” value ([10]; Rate 250 g/ha, Postemergence) was 9, the “Plant response rating, Crabgrass” value [10, 16] was 10 and the “Plant response rating, Nutsedge” value ([11]; Rate 62 g/ha, Postemergence) was 0. The “Nutsedge plant response rating” value ([11]; Rate 62 g/ha, Preemergence) was 0, the “Nutsedge plant response rating” value ([11]; Rate 125 g/ha, Postemergence) was 0 and the “Nutsedge plant response rating” value ([11]; Rate 125 g/ha, Preemergence) was 0. For the same molecule, the “Plant response rating, Nutsedge” value [11, 16] was 0, the “Plant response rating, Redroot pigweed” value ([12]; Rate 62 g/ha, Postemergence) was 8 and the “Redroot pigweed plant response rating” value ([12]; Rate 62 g/ha, Preemergence) was 1. For the same molecule, the “Redroot pigweed plant response rating” value ([12]; Rate 125 g/ha, Postemergence) was 9, the “Redroot pigweed plant response rating” value ([12]; Rate 125 g/ha, Preemergence) was 2 and the “Plant response rating, Redroot pigweed” value ([12]; Rate 250 g/ha, Postemergence) was 9. The “Plant response rating, Redroot pigweed” value [12, 16] was 3, the “Plant response rating, S. Flatsedge” value [13, 17] was 4 and the “S. Flatsedge plant response rating” value [13, 18] was 7. For the same molecule, the “Plant response rating, S. Flatsedge” value [13, 19] was 8, the “Plant response rating, Ducksalad” value [14, 17] was 1 and the “Plant response rating, Ducksalad” value [14, 20] was 2. The “Plant response rating, Ducksalad” value [14, 19] was 6, the “Plant response rating, Barnyardgrass” value [15, 17] was 2 and the “Plant response rating, Barnyardgrass” value [15, 20] was 3. The “Plant response rating, Barnyardgrass” value [15, 19] was 5, the “Plant response rating, Rice” value (rice (Oryza sativa); [17]) was 1 and the “Rice plant response rating” value (rice (Oryza sativa); [18]) was 2. The “Plant response rating, Rice” value (rice (Oryza sativa); [19]) was 3.

Source: patent publication US6525001B1, “Substituted pyrimidine and pyridine herbicides” (Mid-American Commercialization Corporation, priority 1997, dated 2003)
